Test results published in ChEMBL document CHEMBL1926672, “New 5-benzylidenethiazolidin-4-one inhibitors of bacterial MurD ligase: design, synthesis, crystal structures, and biological evaluation” (Eur J Med Chem, 2011).
≈ marks a conversion by molar mass, not a printed value. One block for each compound: values may come before it.

Assays:
[1] = Inhibition of Escherichia coli MurD ligase assessed as addition of D-[14C]glu to UDP-N-acetyl-muramoyl-L-alanine after 30 mins by radioactivity assay
Staphylococcus aureus = test: Antibacterial activity against Staphylococcus aureus ATCC 29213 after 18 to 24 hrs by macrodilution technique; assay type: functional
Pseudomonas aeruginosa = test: Antibacterial activity against Pseudomonas aeruginosa […] after 18 to 24 hrs by macrodilution technique; assay type: functional
Escherichia coli [2] = test: Antibacterial activity against Escherichia coli ATCC 25922 after 18 to 24 hrs by macrodilution technique; assay type: functional
Enterococcus faecalis = test: Antibacterial activity against Enterococcus faecalis ATCC 29212 after 18 to 24 hrs by macrodilution technique; assay type: functional
Escherichia coli [3] = test: Inhibition of Escherichia coli MurD ligase assessed as residual activity at 500 uM after 15 mins using UDP-MurNAc-L-Ala substrate by malachite green colorimetric method
Escherichia coli [4] = test: Inhibition of Escherichia coli MurD ligase assessed as residual activity at 250 uM after 15 mins using UDP-MurNAc-L-Ala substrate by malachite green colorimetric method
[5] = Inhibition of Escherichia coli MurD ligase assessed as residual activity after 15 mins using UDP-MurNAc-L-Ala substrate by malachite green colorimetric method

IC50 [1]: 34 µM
MIC (Staphylococcus aureus): 128 µg/mL (≈ 223 µM)
MIC (Pseudomonas aeruginosa): > 128 µg/mL
MIC (Escherichia coli [2]): > 128 µg/mL
MIC (Enterococcus faecalis): 128 µg/mL (≈ 223 µM)
SMILES: O=C(O)CC[C@@H](NC(=O)c1ccc(COc2ccc(/C=C3\SC(=S)NC3=O)cc2OCC(=O)O)cc1)C(=O)O
MBC (Staphylococcus aureus): > 128 µg/mL
MBC (Pseudomonas aeruginosa): > 128 µg/mL
MBC (Escherichia coli [2]): > 128 µg/mL
MBC (Enterococcus faecalis): > 128 µg/mL

IC50 [1]: 120 µM
SMILES: O=C(O)CC[C@@H](NS(=O)(=O)c1ccc(COc2ccc(/C=C3\SC(=S)NC3=O)cc2)cc1)C(=O)O

Activity (Escherichia coli [3]): 86%
SMILES: O=C(O)CC[C@@H](NC(=O)c1cccc(COc2ccc(Cn3ccc(=O)[nH]c3=O)cc2)c1)C(=O)O

Activity (Escherichia coli [4]): 71%
SMILES: O=C(O)CC[C@@H](NS(=O)(=O)c1ccc(COc2cccc(/C=C3\SC(=O)NC3=O)c2)cc1)C(=O)O

Activity (Escherichia coli [3]): 85%
SMILES: O=C(O)CC[C@@H](NC(=O)c1ccc(COc2ccc(Cn3ccc(=O)[nH]c3=O)cc2)cc1)C(=O)O

Activity (Escherichia coli [3]): 79%
SMILES: O=C(O)CC[C@@H](NC(=O)c1ccc(COc2cccc(/C=C3\SC(=O)NC3=O)c2)cc1)C(=O)O

Activity (Escherichia coli [3]): 86%
SMILES: O=C(O)CC[C@@H](NC(=O)c1ccc(COc2ccc(/C=C3\SC(=O)NC3=O)cc2OCC(=O)O)cc1)C(=O)O

IC50 [1]: 47 µM
SMILES: O=C(O)CC[C@@H](NC(=O)c1cccc(COc2cccc(/C=C3\SC(=S)NC3=O)c2)c1)C(=O)O

IC50 [5]: 814 µM
SMILES: O=C(O)CC[C@@H](NS(=O)(=O)c1ccc(COc2ccc(/C=C3\SC(=O)NC3=O)cc2OCC(=O)O)cc1)C(=O)O

IC50 [1]: 28 µM
MIC (Staphylococcus aureus): > 128 µg/mL
MIC (Pseudomonas aeruginosa): > 128 µg/mL
MIC (Escherichia coli [2]): > 128 µg/mL
MIC (Enterococcus faecalis): > 128 µg/mL
SMILES: O=C(O)CC[C@@H](NC(=O)c1ccc(COc2cccc(/C=C3\SC(=S)NC3=O)c2)cc1)C(=O)O
MBC (Staphylococcus aureus): > 128 µg/mL
MBC (Pseudomonas aeruginosa): > 128 µg/mL
MBC (Escherichia coli [2]): > 128 µg/mL
MBC (Enterococcus faecalis): > 128 µg/mL

IC50 [1]: 45 µM
SMILES: O=C(O)CC[C@@H](NC(=O)c1cccc(CNc2ccc(/C=C3\SC(=S)NC3=O)cc2)c1)C(=O)O

IC50 [5]: 76 µM
SMILES: O=C(O)CC[C@@H](NC(=O)c1cccc(COc2ccc(/C=C3\SC(=S)NC3=O)cc2)c1)C(=O)O

IC50 [1]: 45 µM
MIC (Staphylococcus aureus): > 128 µg/mL
MIC (Pseudomonas aeruginosa): > 128 µg/mL
MIC (Escherichia coli [2]): > 128 µg/mL
MIC (Enterococcus faecalis): > 128 µg/mL
SMILES: O=C(O)CC[C@@H](NS(=O)(=O)c1ccc(COc2cccc(/C=C3\SC(=S)NC3=O)c2)cc1)C(=O)O
MBC (Staphylococcus aureus): > 128 µg/mL
MBC (Pseudomonas aeruginosa): > 128 µg/mL
MBC (Escherichia coli [2]): > 128 µg/mL
MBC (Enterococcus faecalis): > 128 µg/mL

Activity (Escherichia coli [3]): 65%
SMILES: O=C(O)CC[C@@H](NC(=O)c1cccc(COc2cccc(/C=C3\SC(=O)NC3=O)c2)c1)C(=O)O

IC50 [5]: 128 µM
SMILES: O=C(O)CC[C@@H](NC(=O)c1cccc(COc2ccc(/C=C3\SC(=O)NC3=O)cc2)c1)C(=O)O

IC50 [5]: 472 µM
SMILES: O=C(O)CC[C@@H](NS(=O)(=O)c1ccc(COc2ccc(/C=C3\SC(=S)NC3=O)cc2OCC(=O)O)cc1)C(=O)O
